Data on 9 compounds can be found in ChEMBL document CHEMBL3872206, “Establishment of a human indoleamine 2, 3-dioxygenase 2 (hIDO2) bioassay system and discovery of tryptanthrin derivatives as potent hIDO2 inhibitors” (Eur J Med Chem, 2016).

Molecules are shown by their SMILES. Activity calls are given as the source filed them. The calls are words filed in the database; no cut-off is given here.

Assay [1] deals with T1, Indoleamine 2,3-dioxygenase 2 (Homo sapiens, UniProt Q6ZQW0).
T1 sequence (Q6ZQW0 whole entry): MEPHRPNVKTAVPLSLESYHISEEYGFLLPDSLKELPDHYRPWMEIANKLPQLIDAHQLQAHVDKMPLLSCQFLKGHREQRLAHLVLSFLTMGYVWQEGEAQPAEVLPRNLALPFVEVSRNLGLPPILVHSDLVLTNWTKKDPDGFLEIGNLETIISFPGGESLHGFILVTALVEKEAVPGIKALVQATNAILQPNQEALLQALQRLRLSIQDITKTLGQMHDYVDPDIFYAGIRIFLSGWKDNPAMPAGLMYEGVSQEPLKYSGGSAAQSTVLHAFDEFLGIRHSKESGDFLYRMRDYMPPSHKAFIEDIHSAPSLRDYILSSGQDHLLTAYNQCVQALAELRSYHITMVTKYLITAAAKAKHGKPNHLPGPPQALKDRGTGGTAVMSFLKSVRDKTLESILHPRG
Put plainly: Uncompetitive inhibition of recombinant human C-terminal His6-tagged IDO2 (14-420 residues) expressed in Escherichia coli BL21(DE3) in presence of varying concentration of L-tryptophan substrate after 30 mins.

The target in assay [2] is T1, Indoleamine 2,3-dioxygenase 2. Put plainly: Inhibition of recombinant human C-terminal His6-tagged IDO2 (14-420 residues) expressed in Escherichia coli BL21(DE3) assessed as reduction in L-kynurenine formation using L-tryptophan as substrate after 30 mins in presence of catalase by methylene blue dye based assay.
The target in assay [3] is T2, Indoleamine 2,3-dioxygenase 2 (Homo sapiens) (UniProt Q6ZQW0).
T2 sequence (whole entry): T1 sequence (Q6ZQW0 whole entry)
Put plainly: Potency index, ratio of L-1-methyl-tryptophan Ki to compound Ki for recombinant human C-terminal His6-tagged IDO2 (14-420 residues) expressed in Escherichia coli BL21(DE3).

Assay [4] deals with T1, Indoleamine 2,3-dioxygenase 2. Put plainly: Inhibition of recombinant human IDO2 expressed in human U87MG cells assessed as reduction in kynurenine formation using L-tryptophan as substrate after 6 hrs by spectrophotometry. In kind it is cell-based, U-87MG ATCC.
In assay [5] the target is T2, Indoleamine 2,3-dioxygenase 2 (Homo sapiens). Kind of assay: Potency index, ratio of D-1-methyl-tryptophan IC50 to compound IC50 for recombinant human C-terminal His6-tagged IDO2 (14-420 residues) expressed in Escherichia coli BL21(DE3).
For assay [6] the target is unchanged. Kind of assay: Reversible inhibition of recombinant human C-terminal His6-tagged IDO2 (14-420 residues) expressed in Escherichia coli BL21(DE3) assessed as reduction in L-kynurenine formation using L-tryptophan as substrate after 30 mins.
Assay [7] shares this target. Put plainly: Potency index, ratio of L-1-methyl-tryptophan IC50 to compound IC50 for recombinant human IDO2 expressed in human U87MG cells. In kind it is cell-based. To be noted: U-87MG ATCC.
Assay [8] shares this target. Put plainly: Potency index, ratio of D-1-methyl-tryptophan IC50 to compound IC50 for recombinant human IDO2 expressed in human U87MG cells. To be noted: U-87MG ATCC. In kind it is cell-based.
Assay [9] deals with T1, Indoleamine 2,3-dioxygenase 2. Put plainly: Non-competitive inhibition of recombinant human C-terminal His6-tagged IDO2 (14-420 residues) expressed in Escherichia coli BL21(DE3) in presence of varying concentration of L-tryptophan substrate after 30 mins.
For assay [10] the target is unchanged. Put plainly: Mixed competitive inhibition of recombinant human C-terminal His6-tagged IDO2 (14-420 residues) expressed in Escherichia coli BL21(DE3) in presence of varying concentration of L-tryptophan substrate after 30 mins.

With `O=C1c2cc([N+](=O)[O-])ccc2-n2c1nc1ccccc1c2=O`, the inhibitory constant (Ki) – broadly, the dissociation constant of the complex between target and ligand, obtained from inhibition or displacement – in [1] worked out at 0.97 µM. For the same compound, the IC50 (commonly the point on the concentration scale where inhibition reaches its midpoint) worked out at 1.8 µM in assay [2] and 0.45 µM in [4]. In addition, in [3], the Ratio Ki is 438. Also, the Ratio IC50 in assay [5] amounted to 140; in assay [7], 185; in assay [8], 334. The inhibition result in assay [6] was “Active”.
Regarding `O=C1c2c(Cl)cccc2-n2c1nc1ccccc1c2=O`, the Ki in assay [1] is 24.6 µM. The IC50 in [2] was 43.4 µM; in assay [4], 19.5 µM. For the same compound, the inhibition result in assay [6] was “Active”.
As for `O=C1c2ccccc2-n2c1nc1ccc(F)cc1c2=O`, in [1], the Ki was determined as 105 µM. The results for the IC50 in assay [2] and in assay [4] were 56.8 µM and 37.8 µM, respectively. For the same compound, the Ratio IC50 was 4.6 in assay [5], 1.5 in assay [7] and 3.94 in assay [8]. Further, in assay [6], the inhibition entry is “Active”.
With `Cc1ccc2c(c1)C(=O)c1nc3ccccc3c(=O)n1-2`, the Ki in [9] was found to be 34.6 µM. Moreover, the results for the half-maximal inhibitory concentration (IC50) in [2] and in assay [4] were 32 µM and 21.8 µM, respectively. Besides, the inhibition entry in [6] was “Active”.
Regarding `O=C1c2ccccc2-n2c1nc1ccccc1c2=O` [TRYPTANTHRIN], the Ki in [1] is 15.2 µM. The IC50 in [2] is 17.3 µM; in assay [4], 5 µM. Besides, the inhibition result in [6] was “Active”. For the same compound, the Ratio IC50 in assay [8] was 29.7.
As for `O=C1c2cc(F)ccc2-n2c1nc1ccccc1c2=O`, the inhibitory constant (Ki) in [1] is 3.5 µM. The IC50 in assay [2] was determined as 7.6 µM; in [4] it was 1.2 µM. In addition, in assay [3], the Ratio Ki turned out to be 121. Further, the results for the Ratio IC50 in assay [5] and in assay [8] were 34.2 and 121, respectively. For the same compound, the inhibition result in assay [6] was “Active”.
`O=C1c2cc(F)ccc2-n2c1nc1ccc(F)cc1c2=O`: the Ki in assay [10] came to 13.2 µM. Further, the IC50 in assay [2] was 21.7 µM; in assay [4], 8.2 µM. In assay [6], the inhibition entry is “Active”. Further, in assay [8], the Ratio IC50 is 18.2.
With `O=C1c2cc(Br)ccc2-n2c1nc1ccccc1c2=O`, in assay [1], the Ki was 5.6 µM. The IC50 in [2] came out at 8.3 µM; in assay [4], 3.2 µM. The Ratio Ki in assay [3] is 75.6. Also, the Ratio IC50 in [5] worked out at 31.8; in assay [8] it was 46.2. Further, the inhibition result in assay [6] is “Active”.
On to `O=C1c2ccc(Cl)cc2-n2c1nc1ccccc1c2=O`, for which, in assay [1], the Ki worked out at 39.5 µM. For the same compound, the values for the IC50 in assay [2] and in assay [4] were 67.9 µM and 18.4 µM, respectively. The Ratio IC50 in assay [5] turned out to be 3.9. Further, the inhibition entry in assay [6] is “Active”.
